In paper PMC5106528, “High-Throughput Toxicity and Phenotypic Screening of 3D Human Neural Progenitor Cell Cultures on a Microarray Chip Platform” (Stem Cell Reports, 2016):
Where two headings read alike, the source gives them in different places. Marks after values point to notes of the source that are not given here.

Experiments:
[1] = system: differentiating ReNcell VM NPCs; test: cells
Protocol: (§1) On-chip cultures of undifferentiated and 10-day differentiated NPCs were stamped with WellChips filled with compound-containing solutions and incubated for 72 hr prior to viability assessment. Vehicle-control normalized viabilities were plotted against compound concentration to generate dose-response plots (Figures 5A and S4). […] The sigmoidal fits for undifferentiated and differentiating NPCs were compared to assess whether differential sensitivities (i.e., different IC50 values) existed for the screened compounds.
(§2) Cell viability was determined in 3D on-chip cultures using a mammalian cell viability assay (LIVE/DEAD, Invitrogen). Prior to the assay, dead cell controls were prepared with 30 min incubation in a WellChip containing either […] 0.5% (w/v) saponin-DMEM/F12 medium in its microwells. […] After staining, PillarChips were rinsed twice with warm DPBS and incubated in DPBS containing 50 mM trehalose (Sigma) for 10 min before rapid drying with nitrogen and storage in the dark. Dried PillarChips were imaged with a Thermo Scientific Cellomics ArrayScan VTI high-content system.
(§3) Undifferentiated and differentiated microchip cultures were prepared as described above. Chemicals were purchased from Sigma or the NIH Small Molecule Repository (Table S2). Concentrated stocks were prepared and diluted into ReNcell Maintenance Medium to prepare the highest screened concentration solution for each compound. Four-fold serial dilutions were made in ReNcell Maintenance Medium, with all solutions having a final concentration of 0.5% or 1% DMSO (v/v) and 20 μg/mL Matrigel. For undifferentiated cultures, the solutions also contained 20 ng/mL of EGF and FGF2. These solutions were printed into WellChips, covered with a gas-permeable membrane, and warmed at 37°C for at least 5 min before stamping with cells. Each WellChip contained six compounds each at six concentrations (n = 10 biological replicates for each concentration) and the appropriate medium containing 0.5% or 1% DMSO for vehicle and dead controls (n = 32 biological replicates per control). PillarChip cultures were incubated with compounds for 72 hr with daily medium exchange to freshly prepared WellChips containing compounds at the appropriate concentrations. […] On-chip toxicity screens were repeated three times for undifferentiated and differentiated cultures. […]

[2] = system: undifferentiated ReNcell VM NPCs; test: cells
Protocol: as §1, §2, §3

[3] = system: undifferentiated ReNcell VM NPCs; test: On-chip proliferation assay (EdU incorporation), undifferentiated NPCs; assay type: cell-based, human; settings: for Effect on proliferation of NPC cultures (in words): state not specified; for IC50 / Proliferation Effects Undifferentiating log(IC50 ± SEM): undifferentiated, 72 hr exposure, EdU for the final 24 hr, sigmoidal fit
Text: (§4) Differential toxic effects could be explained, in part, as a consequence of the different proliferative states between the undifferentiated and differentiating NPCs. To this end, the thymidine analog, 5-ethynyl-2′-deoxyuridine (EdU), was used to detect actively proliferating cells on-chip following exposure to compounds or vehicle control to determine dose-response effects on proliferation (Figures 5B and S5), and sigmoidal curves were fit, when appropriate, to obtain IC50 values (Table 1). We found ∼60% of undifferentiated NPCs incorporated EdU over a 24-hr period as opposed to ∼3% of differentiating cultures.
(§5) Undifferentiated and differentiating cultures were screened for toxicity as described previously, except that after the first 48 hr of exposure 10 μM EdU (Click-iT EdU, Invitrogen) was added to the compound-containing medium for the final 24 hr. After 72 hr, on-chip cultures were fixed and processed as described previously for on-chip immunofluorescence; however, instead of antibody staining the cultures were incubated with solution containing Alexa Fluor 488-azide for 30 min as specified in the product manual. Cultures were then rinsed with DPBS for 30 min, incubated in DPBS with Hoechst 33342 (5 μg/mL) for 30 min, and washed in DPBS for 30 min before proceeding with a trehalose wash and drying as described previously. Nuclei were selected using Cellomics software from blue channel images to create a mask, which was used for identification of fluorescently labeled EdU in the green channel for quantification of actively proliferating cells over the 24-hr EdU exposure.

[4] = system: differentiating ReNcell VM NPCs; test: cells; assay type: cell-based, human; settings: for IC50 / Proliferation Effects Differentiating log(IC50 ± SEM): differentiating, 72 hr exposure, EdU for the final 24 hr, sigmoidal fit
Text: as §4, §5

[5] = differentiating cultures, 72 hr
[6] = undifferentiated cultures, 72 hr
[7] = Homo sapiens, ReNcell VM, read-out: Viability Effects Differentiating IC50
[8] = Homo sapiens, ReNcell VM, read-out: Viability Effects Differentiating log(IC50 ± SEM) (converted)
[9] = Homo sapiens, ReNcell VM, 72 h, read-out: Viability Effects Undifferentiated IC50
[10] = Homo sapiens, ReNcell VM, 72 h, read-out: Viability Effects Undifferentiated log(IC50 ± SEM) (converted)
[11] = Homo sapiens, ReNcell VM, read-out: Proliferation Effects Undifferentiating IC50
[12] = Homo sapiens, ReNcell VM, read-out: Proliferation Effects Undifferentiating log(IC50 ± SEM) (converted)
[13] = Homo sapiens, ReNcell VM, read-out: Proliferation Effects Differentiating IC50
[14] = Homo sapiens, ReNcell VM, read-out: Proliferation Effects Differentiating log(IC50 ± SEM) (converted)
[15] = 10-day differentiated (−EGF/FGF2), 72 hr exposure, 1% Matrigel on-chip, sigmoidal fit
[16] = read-out: Viability Effects Differentiating IC50, 10-day differentiated (−EGF/FGF2), 72 hr exposure, 1% Matrigel on-chip, sigmoidal fit
[17] = read-out: Viability Effects Undifferentiated IC50, undifferentiated (+EGF/FGF2), 72 hr exposure, 1% Matrigel on-chip, sigmoidal fit
[18] = undifferentiated (+EGF/FGF2), 72 hr exposure, 1% Matrigel on-chip, sigmoidal fit

## CCCC(CCC)C(=O)O [Valproic Acid]
[1]; human, 72 h
  Normalized viability at Cmax, Differentiating, Mean ± SEM: 1.09 ± 0.10
[2]; human, 72 h
  Normalized viability at Cmax, Undifferentiated, Mean ± SEM: 0.99 ± 0.08

## C[C@@H]1C[C@H]2[C@@H]3CCC4=CC(=O)C=C[C@]4(C)[C@@]3(F)[C@@H](O)C[C@]2(C)[C@@]1(O)C(=O)CO [Dexamethasone]
[1]; human, 72 h
  Normalized viability at Cmax, Differentiating, Mean ± SEM: 1.08 ± 0.16
[2]; human, 72 h
  Normalized viability at Cmax, Undifferentiated, Mean ± SEM: 1.35 ± 0.33

## CC1(C)C[C@@H]1C(=O)N/C(=C\CCCCSC[C@H](N)C(=O)O)C(=O)O [Cilastatin]
[1]; [5]
  Effect on cell viability (in words): had no effect
[2]; [6]
  Effect on cell viability (in words): had no effect
[3]
  Effect on proliferation of NPC cultures (in words): did not

## O=C(O)CNCP(=O)(O)O [Glyphosate]
[1]
  Normalized viability at Cmax, Differentiating, Mean ± SEM: 0.41 ± 0.14
[2]
  Normalized viability at Cmax, Undifferentiated, Mean ± SEM: 0.01 ± 0.03

## O=C1CN=C(c2ccccc2)c2cc([N+](=O)[O-])ccc2N1 [Nitrazepam]
[1]
  Normalized viability at Cmax, Differentiating, Mean ± SEM: 1.07 ± 0.07
[2]
  Normalized viability at Cmax, Undifferentiated, Mean ± SEM: 1.16 ± 0.13

## O=c1[nH]cc(F)c(=O)[nH]1 [5-Fluorouracil]
[1]
  Effect on cell viability (in words): minimally impacting
[1]; [7]
  IC50: 2.3 µM
[1]; [8]
  IC50: 2.24 µM
[1]; human, 72 h
  Normalized viability at Cmax, Differentiating, Mean ± SEM: 0.81 ± 0.17
[2]
  Effect on cell viability (in words): nearly complete killing
[2]; [9]
  IC50: 2.3 µM
[2]; [10]
  IC50: 2.29 µM
[2]; human, 72 h
  Normalized viability at Cmax, Undifferentiated, Mean ± SEM: 0.15 ± 0.10
[3]; [11]
  IC50: 1.35 µM
[3]; [12]
  IC50: 1.38 µM
[3]
  Effect on proliferation of NPC cultures (in words): inhibit the proliferation
[3]; undifferentiated cultures
  Effect on EdU incorporation (in words): sharp decrease to no EdU incorporation
[4]; [13]
  IC50: 1.82 µM
[4]; [14]
  IC50: 1.82 µM
[4]; differentiating cultures
  Effect on EdU incorporation (in words): sharp decrease to no EdU incorporation

## COc1cccc2c1C(=O)c1c(O)c3c(c(O)c1C2=O)C[C@@](O)(C(=O)CO)C[C@@H]3O[C@H]1C[C@H](N)[C@H](O)[C@H](C)O1 [Doxorubicin]
[1]; [7]
  IC50: 2.7 µM
[1]; [8]
  IC50: 2.75 µM
[1]; human, 72 h
  Normalized viability at Cmax, Differentiating, Mean ± SEM: 0.11 ± 0.16
[2]; [9]
  IC50: 0.8 µM
[2]; [10]
  IC50: 0.794 µM
[2]; human, 72 h
  Normalized viability at Cmax, Undifferentiated, Mean ± SEM: 0.05 ± 0.13
[3]; [12]
  IC50: < 0.1 µM
[4]; [14]
  IC50: < 0.1 µM

## CC(=O)Nc1ccc(O)cc1 [Acetaminophen]
[1]; [7]
  IC50: 18000 µM
[1]; [8]
  IC50: 20000 µM
[1]; human, 72 h
  Normalized viability at Cmax, Differentiating, Mean ± SEM: -0.1 ± 0.03
[2]
  Cytotoxicity (in words): no cytotoxicity at functionally relevant concentrations
[2]; [9]
  IC50: 1400 µM
[2]; [10]
  IC50: 1260 µM
[2]; human, 72 h
  Normalized viability at Cmax, Undifferentiated, Mean ± SEM: -0.16 ± 0.07
[3]; [11]
  IC50: 1000 µM
[3]; [12]
  IC50: 1040 µM
[4]; [13]
  IC50: 18200 µM
[4]; [14]
  IC50: 18200 µM

## O=C(O)C[C@H](O)C[C@H](O)/C=C/c1c(C2CC2)nc2ccccc2c1-c1ccc(F)cc1 [Pitavistatin]
[1]
  Effect on cell viability (in words): did not decrease the viability
  Normalized viability at Cmax, Differentiating, Mean ± SEM: 1.16 ± 0.07
[2]
  Effect on cell viability (in words): cytotoxic only to undifferentiated NPCs
  Normalized viability at Cmax, Undifferentiated, Mean ± SEM: 0.14 ± 0.11
[2]; [9]
  IC50: 5.4 µM
[2]; [10]
  IC50: 5.37 µM
[3]; [11]
  IC50: 2 µM
[3]; [12]
  IC50: 1.95 µM
[3]
  Effect on proliferation of NPC cultures (in words): inhibited proliferation
[4]; [13]
  IC50: 0.98 µM
[4]; [14]
  IC50: 0.977 µM

## Fc1ccc([C@@H]2CCNC[C@H]2COc2ccc3c(c2)OCO3)cc1 [Paroxetine]
[1]; human, 72 h
  Normalized viability at Cmax, Differentiating, Mean ± SEM: 0.30 ± 0.38
[2]; human, 72 h
  Normalized viability at Cmax, Undifferentiated, Mean ± SEM: 0.07 ± 0.13

## CC1=C(/C=C/C(C)=C/C=C/C(C)=C/C(=O)O)C(C)(C)CCC1 [Retinoic Acid]
[1]; [7]
  IC50: 47 µM
[1]; [8]
  IC50: 50.1 µM
[1]; human, 72 h
  Normalized viability at Cmax, Differentiating, Mean ± SEM: 0.50 ± 0.13
[2]; [9]
  IC50: 0.74 µM
[2]; [10]
  IC50: 0.741 µM
[2]; human, 72 h
  Normalized viability at Cmax, Undifferentiated, Mean ± SEM: 0.55 ± 0.16
[3]; [11]
  IC50: 15 µM
[3]; [12]
  IC50: 14.8 µM
[4]; [13]
  IC50: 22 µM
[4]; [14]
  IC50: 22.4 µM
[4]; differentiated cultures, at lower concentrations
  Increase of the average number of proliferating cells: greater than 3 fold

## CC(COc1ccccc1Cc1ccccc1)N1CCCCC1 (stereo not shown) [Benproperone, Benproperine]
[1]
  Normalized viability at Cmax, Differentiating, Mean ± SEM: 0.71 ± 0.30
[2]
  Normalized viability at Cmax, Undifferentiated, Mean ± SEM: 0.06 ± 0.52

## C[n+]1ccc(-c2cc[n+](C)cc2)cc1 [Paraquat]
[1]
  Normalized viability at Cmax, Differentiating, Mean ± SEM: 0.05 ± 0.02
[1]; [7]
  IC50: 41 µM
[1]; [8]
  IC50: 40.7 µM
[2]
  Normalized viability at Cmax, Undifferentiated, Mean ± SEM: -0.02 ± 0.03
[2]; [9]
  IC50: 57 µM
[2]; [10]
  IC50: 63.1 µM
[3]; [11]
  IC50: 59 µM
[3]; [12]
  IC50: 58.9 µM
[4]; [13]
  IC50: 30 µM
[4]; [14]
  IC50: 30.2 µM

## Nc1ccn([C@@H]2O[C@H](CO)[C@@H](O)[C@@H]2O)c(=O)n1 [Cytosine Arabinoside]
[1]
  Normalized viability at Cmax, Differentiating, Mean ± SEM: 0.47 ± 0.12
[1]; [15]
  Viability Effects Differentiating log(IC50 ± SEM): 0.55 ± 0.55 log(μM)
[1]; [16]
  IC50: 3.5 µM
[2]
  Normalized viability at Cmax, Undifferentiated, Mean ± SEM: 0.40 ± 0.03
[2]; [17]
  IC50: 0.33 µM
[2]; [18]
  Viability Effects Undifferentiated log(IC50 ± SEM): −0.48 ± 0.17 ^b log(μM)
[3]
  Proliferation Effects Undifferentiating log(IC50 ± SEM): < −1 log(μM)
[4]
  Proliferation Effects Differentiating log(IC50 ± SEM): < −1 log(μM)

## [Cl][Cd][Cl] [Cadmium Chloride]
[1]; [15]
  Viability Effects Differentiating log(IC50 ± SEM): 0.88 ± 0.27 log(μM)
[1]; [16]
  IC50: 7.6 µM
[2]; [17]
  IC50: 3.7 µM
[2]; [18]
  Viability Effects Undifferentiated log(IC50 ± SEM): 0.57 ± 0.3 log(μM)
[3]
  Proliferation Effects Undifferentiating log(IC50 ± SEM): 0.93 log(μM)
[3]; read-out: Proliferation Effects Undifferentiating IC50
  IC50: 8.6 µM
[4]
  Proliferation Effects Differentiating log(IC50 ± SEM): 1.18 log(μM)
[4]; read-out: Proliferation Effects Differentiating IC50
  IC50: 15 µM

## CN1CCN2c3ncccc3Cc3ccccc3C2C1 (stereo not shown) [Mitrazepine, Mirtazapine]
[2]; human, 72 h
  Normalized viability at Cmax, Undifferentiated, Mean ± SEM: 1.11 ± 0.09

## CC(=O)[O-].CC(=O)[O-].[Pb+2] [Lead Acetate]
[1]; [5]
  Effect on cell viability (in words): did not reduce cell viability
[2]; [6]
  Effect on cell viability (in words): did not reduce cell viability

## CN(C)CCOC(c1ccccc1)c1ccccc1 [Diphenhydramine]
[2]
  Cytotoxicity (in words): no cytotoxicity at functionally relevant concentrations

## [Cl][Mn][Cl] [Manganese Chloride]
[1]; [5]
  Effect on cell viability (in words): did not reduce cell viability
[2]; [6]
  Effect on cell viability (in words): did not reduce cell viability
